Source: US6737383B1, “Herbicidal oxadiazolidines” (priority 1999, dated 2004)

Assays:
arrowleaf sida = test: Test C postemergence arrowleaf sida; format: in vivo, Sida rhombifolia; settings: 0 to 100 scale, 0 no effect, 100 complete control
Description: (§1) Compounds evaluated in this test were formulated in a non-phytotoxic solvent mixture which included a surfactant and applied to plants that were grown for various periods of time before treatment (postemergence application). A mixture of sandy loam soil and greenhouse potting mix in a 60:40 ratio was used for the postemergence test.
(§2) Plantings of these crops and weed species were adjusted to produce plants of appropriate size for the postemergence test. All plant species were grown using normal greenhouse practices. Crop and weed species include arrowleaf sida (Sida rhombifolia), barnyardgrass (Echinochloa crus-galli), cocklebur (Xanthium strumarium), common ragweed (Ambrosia elatior), corn (Zea mays), cotton (Gossypium hirsutum), eastern black nightshade (Solanum ptycanthum), fall panicum (Panicum dichotomiflorum), field bindweed (Convolvulus arvensis), giant foxtail (Setaria faberii), hairy beggarticks (Bidens pilosa), ivyleaf morningglory (Ipomoea hederacea), johnsongrass (Sorghum halepense), ladysthumb smartweed (Polygonum persicaria), lambsquarters (Chenopodium album), large crabgrass (Digitaria sanguinalis), purple nutsedge (Cyperus rotundus), redroot pigweed (Amaranthus retroflexus), soybean (Glycine max), surinam grass (Brachiaria decumbens), velvetleaf (Abutilon theophrasti) and wild poinsettia (Euphorbia heterophylla).
(§3) Treated plants and untreated controls were maintained in a greenhouse for approximately 14, to 21 days, after which all treated plants were compared to untreated controls and visually evaluated. Plant response ratings, summarized in Table C, were based upon a 0 to 100 scale where 0 was no effect and 100 was complete control. A dash response (−) means no test result.

barnyardgrass [1] = test: Test C postemergence barnyardgrass; format: in vivo, Echinochloa crus-galli; settings: 0 to 100 scale, 0 no effect, 100 complete control
Description: as §1, §2, §3

cocklebur = test: Test C postemergence cocklebur; format: in vivo, Xanthium strumarium; settings: 0 to 100 scale, 0 no effect, 100 complete control
Description: as §1, §2, §3

eastern black nightshade = test: Test C postemergence eastern black nightshade; format: in vivo, Solanum ptycanthum; settings: 0 to 100 scale, 0 no effect, 100 complete control
In short: (§4)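 Greenhouse postemergence test: compound applied in solvent/surfactant formulation to established plants; visual scoring 0–100 against untreated controls after roughly two to three weeks (14–21 days).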

hairy beggarticks = test: Test C postemergence hairy beggarticks; format: in vivo, Bidens pilosa; settings: 0 to 100 scale, 0 no effect, 100 complete control
In short: as §4

johnsongrass = test: Test C postemergence johnsongrass; format: in vivo, Sorghum halepense; settings: 0 to 100 scale, 0 no effect, 100 complete control
Description: as §1, §2, §3

lambsquarters = test: Test C postemergence lambsquarters; format: in vivo, Chenopodium album; settings: 0 to 100 scale, 0 no effect, 100 complete control
Description: as §1, §2, §3

redroot pigweed = test: Test C postemergence redroot pigweed; format: in vivo, Amaranthus retroflexus; settings: 0 to 100 scale, 0 no effect, 100 complete control
In short: as §4

barnyardgrass [2] = test: Test A barnyardgrass; format: in vivo, Echinochloa crus-galli; settings: 0 to 10 scale where 0 is no effect and 10 is complete control
Description: (§5) Seeds of barnyardgrass (Echinochloa crus-galli), crabgrass (Digitaria spp.), morningglory (Ipomoea spp.), and velvetleaf (Abutilon theophrasti) were planted into a sandy loam soil and treated preemergence by soil drench with test chemicals formulated in a non-phytotoxic solvent mixture which includes a surfactant At the same time, these crop and weed species were also treated postemergence sprayed to runoff, with test chemicals formulated in the same manner.
(§6) Plants ranged in height from two to eighteen cm and were in the one to two leaf stage for the postemergence treatment. Treated plants and untreated controls were maintained in a greenhouse for approximately eleven days, after which all treated plants were compared to untreated controls and visually evaluated for injury. Plant response ratings, summarized in Table A, are based on a 0 to 10 scale where 0 is no effect and 10 is complete control.

crabgrass = test: Test A crabgrass; format: in vivo, Digitaria spp.; settings: 0 to 10 scale where 0 is no effect and 10 is complete control
In short: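 Visual injury score, 0 (no effect) to 10 (complete control), vs untreated controls at ~11 d in greenhouse. Pre: soil drench on sandy loam. Post: spray to runoff, 1–2 leaf stage.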

velvetleaf = test: Test A velvetleaf; format: in vivo, Abutilon theophrasti; settings: 0 to 10 scale where 0 is no effect and 10 is complete control
Description: as §5, §6

common pursiane = test: Test D common purslane; format: in vivo, Portulaca oleracea; settings: Rate 64 g/ha, Postemergence; 0 to 100 scale, 0 no injury, 100 complete control
common ragweed = test: Test D common ragweed; format: in vivo, Ambrosia elatior; settings: Rate 64 g/ha, Postemergence; 0 to 100 scale, 0 no injury, 100 complete control
common groundsel = test: Test D common groundsel; format: in vivo, Senecio vulgaris; settings: Rate 64 g/ha, Postemergence; 0 to 100 scale, 0 no injury, 100 complete control
goosegrass = test: Test D goosegrass; format: in vivo, Eleusine indica; settings: Rate 64 g/ha, Postemergence; 0 to 100 scale, 0 no injury, 100 complete control
Johnson grass = test: Test D Johnson grass; format: in vivo, Sorghum halepense; settings: Rate 64 g/ha, Postemergence; 0 to 100 scale, 0 no injury, 100 complete control
pitted morningglory = test: Test D pitted morningglory; format: in vivo, Ipomoea lacunosa; settings: Rate 64 g/ha, Postemergence; 0 to 100 scale, 0 no injury, 100 complete control
Green foxtail = test: Test D green foxtail; format: in vivo; settings: Rate 64 g/ha, Postemergence; 0 to 100 scale, 0 no injury, 100 complete control

SMILES | Plant response rating Arrowleaf sida (arrowleaf sida; Rate 280 g/ha) | Plant response rating Arrowleaf sida (arrowleaf sida; Rate 560 g/ha) | Plant response rating, Barnyardgrass (barnyardgrass [1]; Rate 140 g/ha) | Plant response rating, Barnyardgrass (barnyardgrass [1]; Rate 280 g/ha) | Plant response rating, Barnyardgrass (barnyardgrass [1]; Rate 560 g/ha) | Plant response rating, Barnyardgrass (barnyardgrass [1]; Rate 1120 g/ha) | Plant response rating, Cocklebur (cocklebur; Rate 140 g/ha) | Plant response rating, Cocklebur (cocklebur; Rate 280 g/ha) | Plant response rating, Cocklebur (cocklebur; Rate 560 g/ha) | Plant response rating E. blacknightsh (eastern black nightshade; Rate 140 g/ha) | Plant response rating E. blacknightsh (eastern black nightshade; Rate 280 g/ha) | Plant response rating E. blacknightsh (eastern black nightshade; Rate 1120 g/ha) | Plant response rating H. beggarticks (hairy beggarticks; Rate 280 g/ha) | Plant response rating H. beggarticks (hairy beggarticks; Rate 560 g/ha) | Plant response rating H. beggarticks (hairy beggarticks; Rate 1120 g/ha) | Plant response rating, Johnsongrass (johnsongrass; Rate 140 g/ha) | Plant response rating, Johnsongrass (johnsongrass; Rate 280 g/ha) | Plant response rating, Johnsongrass (johnsongrass; Rate 560 g/ha) | Plant response rating, Johnsongrass (johnsongrass; Rate 1120 g/ha) | Plant response rating, Lambsquarters (lambsquarters; Rate 140 g/ha) | further results
C=CCn1c(=O)on(C(=O)N(c2ccccc2)C(C)C)c1=O [Compound 93] | 10 | 60 | 70 | 90 | 90 | 95 | 0 | 35 | 40 | 10 | 40 | 85 | 0 | 5 | 70 | 0 | 5 | 85 | 90 | 10 | Plant response rating Arrowleaf sida (arrowleaf sida; Rate 1120 g/ha): 60; Plant response rating, Lambsquarters (lambsquarters; Rate 280 g/ha): 10; Plant response rating, Lambsquarters (lambsquarters; Rate 560 g/ha): 10; Plant response rating, Lambsquarters (lambsquarters; Rate 1120 g/ha): 40; Plant response rating, Redroot pigweed (redroot pigweed; Rate 140 g/ha): 5; Plant response rating, Redroot pigweed (redroot pigweed; Rate 560 g/ha): 10; Plant response rating, Redroot pigweed (redroot pigweed; Rate 1120 g/ha): 85
CC(C)N(C(=O)n1oc(=O)n(C2CCCCC2C(F)(F)F)c1=O)c1ccc(F)cc1 (centres unmarked) [Compound 99] | – | – | – | – | – | – | – | – | – | – | – | – | – | – | – | – | – | – | – | – | Plant response rating, Barnyardgrass (barnyardgrass [2]; Postemergence, Rate 1000 g/ha): 7; Plant response rating, Barnyardgrass (barnyardgrass [2]; Pre-emergence, Rate 2000 g/ha): 9; Plant response rating, Crabgrass (crabgrass; Postemergence, Rate 1000 g/ha): 7; Plant response rating, Crabgrass (crabgrass; Pre-emergence, Rate 2000 g/ha): 10; Plant response rating, Velvetleaf (velvetleaf; Postemergence, Rate 1000 g/ha): 2; Plant response rating, Velvetleaf (velvetleaf; Pre-emergence, Rate 2000 g/ha): 3
CC(C)N(C(=O)n1oc(=O)n(Cc2cccs2)c1=O)c1ccccc1 [Compound 103] | 0 | 0 | 0 | 0 | 10 | 80 | 0 | 0 | 0 | 0 | 0 | 0 | 0 | 0 | 5 | 0 | 0 | 0 | 0 | 0 | Plant response rating Arrowleaf sida (arrowleaf sida; Rate 140 g/ha): 0; Plant response rating, Cocklebur (cocklebur; Rate 1120 g/ha): 0; Plant response rating E. blacknightsh (eastern black nightshade; Rate 560 g/ha): 0; Plant response rating H. beggarticks (hairy beggarticks; Rate 140 g/ha): 0; Plant response rating, Lambsquarters (lambsquarters; Rate 280 g/ha): 5; Plant response rating, Lambsquarters (lambsquarters; Rate 560 g/ha): 5; Plant response rating, Lambsquarters (lambsquarters; Rate 1120 g/ha): 20; Plant response rating, Redroot pigweed (redroot pigweed; Rate 140 g/ha): 0; Plant response rating, Redroot pigweed (redroot pigweed; Rate 280 g/ha): 60; Plant response rating, Redroot pigweed (redroot pigweed; Rate 560 g/ha): 70; Plant response rating, Redroot pigweed (redroot pigweed; Rate 1120 g/ha): 85
CC(C)Cn1c(=O)on(C(=O)N(c2ccc(F)cc2)C(C)C)c1=O [Compound 169] | – | – | – | – | – | – | – | – | – | – | – | – | – | – | – | – | – | – | – | – | Plant response rating, C. purslane (common pursiane): 0; Plant response rating, C. ragweed (common ragweed): 0; Plant response rating, Com. groundsel (common groundsel): 65; Plant response rating, Goosegrass (goosegrass): 100; Plant response rating, Johnsongrass (Johnson grass): 0; Plant response rating, P. morninglory (pitted morningglory): 0; Plant response rating, Green foxtail (Green foxtail): 100
